From patent US12157739B2, “Hypoxanthine compounds” (KISSEI PHARMACEUTICAL CO., LTD., priority 2018, dated 2024)
Where two headings read alike, the source gives them in different places.

How the values were obtained:
[1] = Rat PK study: concentration of compounds in large intestine tissue and plasma; type: in vivo; conditions: male, 3 mg/kg oral, non-fasted SD rats; for Kp at 8 h: large intestine tissue / plasma, read-out: C/P: ratio of Colon and Plasma; for Cmax: read-out: Cmax: maximum plasma concentration
Experimental: Test compounds (3 mg/kg/5 mL) prepared by 0.05% methylcellulose were orally administered to non-fasted rats (SD, 8-weeks-old, male, Japan SLC). Blood samples were collected from jugular vein at 0.25, 0.5, 1, 2, 4, 6 and 8 hours after the administration. Laparotomy was performed under isoflurane anesthesia and large intestine was isolated. Collected distal large intestine (about 5 cm) was cut open, and then the large intestine was washed with saline on a dish. After washing, the large intestine was minced by a small scissors. About 150 mg thereof was moved to tube. To the tube was added 100 μL of saline, the mixture was homogenized using shake master (1000 rpm×30 minutes). Samples were prepared by the addition with quadruple volume of saline as final volume. The concentrations of the test compound in large intestine tissue and plasma were measured through a quantitative analysis using liquid chromatography-mass spectrometry (LC/MS).
• Cmax: maximum plasma concentration of test compounds in the case of oral administration (ng/mL) • AUC: area under the plasma test compound concentration-time curve (ng*min/mL) • Plasma: plasma test compound concentration after 8 hours (ng/ml) • Colon: concentrations of the test compound in large intestine tissue after 8 hours (ng/g) • C/P: ratio of the above Colon and Plasma

human PHD2184-418 = human PHD2184-418 (Homo sapiens (Human), UniProt Q9GZT9); assay: PHD2 inhibitory test (fluorescence polarization); type: binding; conditions: human PHD2184-418, FITC-labeled HIF-1α556-574 substrate, 2 μM 2-oxoglutarate, 37° C. 60 minutes
human PHD2184-418, sequence (Q9GZT9 184-418): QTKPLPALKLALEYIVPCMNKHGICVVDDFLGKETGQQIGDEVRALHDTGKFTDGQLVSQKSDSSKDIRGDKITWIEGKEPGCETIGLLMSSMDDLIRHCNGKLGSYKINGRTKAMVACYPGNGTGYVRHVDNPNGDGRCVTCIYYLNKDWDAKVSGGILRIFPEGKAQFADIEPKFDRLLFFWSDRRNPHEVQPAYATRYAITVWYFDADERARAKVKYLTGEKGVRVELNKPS
Experimental: (1) Expression and Preparation of Human PHD2184-418
Human PHD2184-418 containing amino acid residues 184 to 418 of the protein represented by CAC42509 (GenBank accession ID) was expressed and prepared by the following method.
An expression construct of human PHD2184-418 containing N-terminal histidine tag was introduced into pET-30a (+) vector, and the sequence was confirmed. This vector was introduced into BL21 (DE3) strain and cultured at 37° C. in LB medium containing antibiotics. After culturing, a cell lysis solution was added to the cells, and then the cells were disrupted by sonication. The disrupted suspension was centrifuged and the supernatant was purified by Ni column to give human PHD2184-418.
Human HIF-1α556-574 (FITC-labeled HIF-1α556-574), containing N-terminal FITC-Ahx, containing amino acid residues 556 to 574 (partial peptide) of HIF-1α was used as a substrate. Using FITC-labeled HIF-1α556-574, the competitive inhibition between 2-oxoglutarate and test compounds (PHD inhibitor) was evaluated based on the change in fluorescence polarization by the following method.
An enzyme (human PHD2184-418) and the substrate were diluted with an assay buffer (pH 7.4) containing 10 mM HEPES, 150 mM NaCl, 10 μM MnCl2-4H2O, 2 μM 2-oxoglutarate and 0.05% Tween-20. Test compounds were diluted with DMSO. Test compounds and human PHD2184-418 was added to the 384-well plate (Corning, black, opaque bottom) in advance. The reaction was started by the addition of FITC-labeled HIF-1α556-574. After incubating at 37° C. for 60 minutes, fluorescence polarization (excitation wavelength: 470 nm, fluorescence wavelength: 530 nm) was measured by PHERAstar FSX (BMG Labtech). Fluorescence polarization of each well was measured, and human PHD2 binding inhibitory activity of test compounds was calculated based on the value of test compound-free group.

[2] = Rat PK study: concentration of compounds in large intestine tissue and plasma; type: in vivo; conditions: male, plasma, 3 mg/kg oral, non-fasted SD rats, read-out: AUC: area under the plasma test compound concentration-time curve (converted)
[3] = system: TNBS induced colitis model rat; assay: Therapeutic effect in TNBS induced colitis model rat (intestinal permeability of FITC); type: in vivo; conditions: po, 72 h, SD rats, mean, read-out: Inhibition (%): suppressive rate on the intestinal permeability; for inhibition in vivo at 3 mg/kg: 3 mg/kg orally once a day for 3 days
Experimental: SD rats: 8-weeks-old male SLC (Japan SLC) were used. Under pentobarbital anesthesia, 300 μL of TNBS (28 mg/mL) which was prepared by 50% ethanol was administered at a point 8 cm from anus in large intestine to cause inflammation. To the solvent-treated group was administrated 300 μL of 50% ethanol. Animals were fasted for 48 hours prior to administration of TNBS. Test compounds (3 mg/kg or 10 mg/kg) prepared by 0.05% methylcellulose solution were orally administered once a day from next day, and it was administered for a total of 3 days. After administering for 3 days, 50 mg/kg FITC was orally administered at 4 hours after administration. Blood samples were collected from jugular vein under isoflurane anesthesia after 4 hours. The serum was centrifuged and fluorescence intensity was detected by PHERAstar FSX (BMG Labtech) to measure the concentration of FITC permeating into circulating blood through the mesentery. The suppressive rate on the intestinal permeability of test compounds was calculated based on the value of test compounds-free group as 0 and the value of TNBS-untreated group as 100.

[4] = large intestine tissue (distal, colon), read-out: Colon: concentration in large intestine tissue after 8 hours
[5] = plasma, read-out: Plasma: plasma test compound concentration after 8 hours

SMILES	concentration at 8 h [1, 4]	Kp at 8 h [1]	concentration at 8 h [1, 5]	Cmax ([1]; plasma)	IC50 (human PHD2184-418)	AUC [2]	inhibition in vivo at 10 mg/kg ([3]; 10 mg/kg orally once a day for 3 days)	inhibition in vivo at 3 mg/kg [3]
O=C(O)c1cnn(-c2nc3ncn(Cc4ccc(-c5ccccc5)cc4)c3c(=O)[nH]2)c1 [Example 1, 1-(7-([1,1′-Biphenyl]-4-ylmethyl)-6-oxo-6,7-dihydro-1H-purin-2-yl)-1H-pyrazole-4-carboxylic acid]	109 ng/g	36	3 ng/mL	11 ng/mL	90 nM	46.3 ng·h/mL	54%	–
O=C(O)c1cnn(-c2nc3ncn(COCc4ccccc4)c3c(=O)[nH]2)c1 [Example 2, 1-(7-((Benzyloxy)methyl)-6-oxo-6,7-dihydro-1H-purin-2-yl)-1H-pyrazole-4-carboxylic acid]	188 ng/g	> 188	< 1 ng/mL	3 ng/mL	640 nM	0.833 ng·h/mL	–	51%
O=C(O)c1cnn(-c2nc3ncn(Cc4ccc(O)cc4)c3c(=O)[nH]2)c1 [Example 3, 1-(7-(4-Hydroxybenzyl)-6-oxo-6,7-dihydro-1H-purin-2-yl)-1H-pyrazole-4-carboxylic acid]	87 ng/g	> 87	< 1 ng/mL	6 ng/mL	640 nM	3.27 ng·h/mL	–	93%
CS(=O)(=O)c1ccc(Cn2cnc3nc(-n4cc(C(=O)O)cn4)[nH]c(=O)c32)cc1 [Example 4, 1-(7-(4-(Methylsulfonyl)benzyl)-6-oxo-6,7-dihydro-1H-purin-2-yl)-1H-pyrazole-4-carboxylic acid]	94 ng/g	47	2 ng/mL	6 ng/mL	530 nM	29.2 ng·h/mL	–	66%
COc1ccc(Cn2cnc3nc(-n4cc(C(=O)O)cn4)[nH]c(=O)c32)cc1 [Example 11, 1-(7-(4-Methoxybenzyl)-6-oxo-6,7-dihydro-1H-purin-2-yl)-1H-pyrazole-4-carboxylic acid]	–	–	–	10 ng/mL	–	18.2 ng·h/mL	–	83%
O=C(O)c1ccc(Cn2cnc3nc(-n4cc(C(=O)O)cn4)[nH]c(=O)c32)cc1 [Example 12, 1-(7-(4-Carboxybenzyl)-6-oxo-6,7-dihydro-1H-purin-2-yl)-1H-pyrazole-4-carboxylic acid]	67 ng/g	34	2 ng/mL	16 ng/mL	610 nM	49.9 ng·h/mL	–	78%
O=C(O)c1cnn(-c2nc3c(ncn3Cc3ccc(O)cc3)c(=O)[nH]2)c1 [Example 29, 1-(9-(4-Hydroxybenzyl)-6-oxo-6,9-dihydro-1H-purin-2-yl)-1H-pyrazole-4-carboxylic acid]	646 ng/g	> 646	< 1 ng/mL	< 1 ng/mL	370 nM	–	–	86%
COc1ccc(Cn2cnc3c(=O)[nH]c(-n4cc(C(=O)O)cn4)nc32)cc1 [Example 35, 1-(9-(4-Methoxybenzyl)-6-oxo-6,9-dihydro-1H-purin-2-yl)-1H-pyrazole-4-carboxylic acid]	11 ng/g	> 11	< 1 ng/mL	< 1 ng/mL	590 nM	–	–	81%
Cl.O=C(O)c1cnn(-c2nc3ncn(Cc4ccc(OCCN5CCOCC5)cc4)c3c(=O)[nH]2)c1 [Example 75, 1-(7-(4-(2-Morpholinoethoxy)benzyl)-6-oxo-6,7-dihydro-1H-purin-2-yl)-1H-pyrazole-4-carboxylic acid hydrochloride]	323 ng/g	> 323	1 ng/mL	4 ng/mL	420 nM	12.9 ng·h/mL	–	80%
